We go through eight molecules from PubChem BioAssay (NCI).

Some test systems named below: M14 melanoma; NCI/ADR-RES ovarian; TK-10 renal; SF-268 CNS; HCC-2998 colon; SF-295 CNS; HT29 colon; SK-MEL-2 melanoma; OVCAR-8 ovarian; EKVX NSCLC.
Holding throughout (assay): NCI-60 cell line screen, 48 h

“And” between values parts separate entries of the source, which are not always exact repeats. Identical values can stand only once.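 Cultured in 96-well plates, cells were exposed to test compound for 48 hours across five concentrations. Here, GI50 denotes the concentration required for 50% inhibition of growth. TGI marks complete inhibition of growth.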 Where a SMILES comes first, the peptide text is derived from it. [ ]: non-standard residue; d: D form. Phe(F5) = N[CH](Cc1c(F)c(F)c(F)c(F)c1F)C(=O)O

As for `CC[C@](C)(O)C(=O)O[C@H]1C(=O)O[C@@H]2C[C@H]3C(C)=CC(=O)[C@@H](O)[C@]3(C)[C@H]3[C@@]4(O)OC[C@]32[C@@H]1[C@@H](C)[C@H]4O`, the TGI with M14 melanoma was 0.396 µM; in the assay with TK-10 renal, 9.39 µM; in the assay with SF-268 CNS, 0.633 µM and 0.226 µM; in the assay with HCC-2998 colon it was 0.469 µM and 0.316 µM; in the assay with SF-295 CNS it was 2.6 µM and 0.351 µM; with HT29 colon it was 10.3 µM and 2.27 µM. Further, the TGI in the assay with SK-MEL-2 melanoma was 0.644 µM and 0.217 µM; with OVCAR-8 ovarian it was 1.74 µM and 0.541 µM. Further, the GI50 in the assay on NCI/ADR-RES ovarian is 0.036 µM; in the assay on SF-268 CNS, 0.155 µM; in the assay with HCC-2998 colon it was 0.12 µM; in the assay on SF-295 CNS it was 0.296 µM; in the assay on HT29 colon, 0.321 µM and 0.122 µM; in the assay on OVCAR-8 ovarian it was 0.164 µM. The GI50 in the assay on EKVX NSCLC was 1.61 µM.

In the case of `CC[C@H](Nc1nc(N)nc(C)c1C#N)c1nc2cccc(CN(C)c3ncc(C(=O)NO)cn3)c2c(=O)n1-c1ccccc1`, the GI50 in the assay on M14 melanoma is 1.08 µM; in the assay with NCI/ADR-RES ovarian it was 11.4 µM; with TK-10 renal it was 0.681 µM; in the assay with SF-268 CNS, 1.09 µM; in the assay on HCC-2998 colon, 0.806 µM; in the assay on SF-295 CNS it was 1.28 µM. Besides, the GI50 in the assay on HT29 colon was 0.8 µM; in the assay with SK-MEL-2 melanoma it was 1.35 µM; in the assay on OVCAR-8 ovarian it was 0.704 µM; in the assay with EKVX NSCLC, 1.69 µM. The TGI is 7.01 µM with M14 melanoma; over 50 µM in the assay on NCI/ADR-RES ovarian; 3.85 µM in the assay with TK-10 renal; 4.19 µM in the assay with SF-268 CNS; 2.32 µM with HCC-2998 colon; 3.81 µM in the assay with SF-295 CNS. The TGI is over 17.6 µM in the assay on HT29 colon, 8.75 µM in the assay with SK-MEL-2 melanoma, 10.3 µM with OVCAR-8 ovarian and 16.9 µM in the assay on EKVX NSCLC.

For the molecule `C[C@]12CC[C@H]3[C@@H](CCC4=CC(=O)CC[C@@H]43)[C@@H]1CC[C@@H]2OC(=O)N(CCCl)N=O`, the GI50 in the assay with M14 melanoma was 4.27 µM; with NCI/ADR-RES ovarian, 2.96 µM; in the assay on TK-10 renal, 11.1 µM; with SF-268 CNS it was 0.167 µM; in the assay on HCC-2998 colon, 2.2 µM; in the assay on SF-295 CNS, 0.121 µM. In addition, the GI50 was 3.7 µM in the assay on HT29 colon, 3.07 µM in the assay on SK-MEL-2 melanoma, 5.91 µM in the assay on OVCAR-8 ovarian and 3.67 µM in the assay on EKVX NSCLC. For the same molecule, the TGI with M14 melanoma was 21.4 µM; with NCI/ADR-RES ovarian it was 31.9 µM; in the assay with TK-10 renal it was 43.8 µM; with SF-268 CNS, 17.6 µM; with HCC-2998 colon it was 12.4 µM; in the assay with SF-295 CNS, over 44.6 µM. The TGI in the assay with HT29 colon was determined as 13.7 µM; with SK-MEL-2 melanoma, 28.6 µM; in the assay with OVCAR-8 ovarian, 51.9 µM; in the assay on EKVX NSCLC it was 36.6 µM.

As for `CC(=O)OC1c2ccccc2CC2(OC(C)=O)c3ccccc3C12` (stereo unspecified), the TGI with M14 melanoma, with NCI/ADR-RES ovarian, with TK-10 renal, in the assay with SF-268 CNS, in the assay on HCC-2998 colon and with SF-295 CNS was over 100 µM throughout. Further, the TGI in the assay with HT29 colon, in the assay with SK-MEL-2 melanoma, in the assay on OVCAR-8 ovarian and in the assay with EKVX NSCLC was over 100 µM throughout.

As to `COC(=O)C(CC(C)C)NC(=O)C(Cc1cnc[nH]1)NC(=O)CNC(=O)C(NC(=O)C(C)NC(=O)C(Cc1c[nH]c2ccccc12)NC(=O)C(CCC(=O)O)NC(=O)C(N)Cc1c(F)c(F)c(F)c(F)c1F)C(C)C` (stereo unspecified) (H-[Phe(F5)]EWAVGHL-OMe; configuration not given here), the GI50 in the assay with M14 melanoma, in the assay with HCC-2998 colon, in the assay on SF-295 CNS, with HT29 colon, with SK-MEL-2 melanoma and in the assay with OVCAR-8 ovarian was over 100 µM in each case. In the assay on EKVX NSCLC, the GI50 is over 100 µM. The TGI in the assay with M14 melanoma was over 100 µM; in the assay on NCI/ADR-RES ovarian, over 12.5 µM; in the assay on SF-268 CNS, over 12.5 µM; with HCC-2998 colon it was over 100 µM; in the assay with SF-295 CNS, over 100 µM; in the assay with HT29 colon, over 100 µM. Further, the TGI in the assay on SK-MEL-2 melanoma, in the assay on OVCAR-8 ovarian and in the assay on EKVX NSCLC was over 100 µM each time.

As for `COc1cc2cc(Oc3ccc(NC(=O)Nc4ccc(Cl)c(C(F)(F)F)c4)cc3)c(C)nc2cc1OCCN1CCCCC1`, the GI50 with M14 melanoma was 1.92 µM; in the assay with NCI/ADR-RES ovarian, 1.69 µM; in the assay with TK-10 renal it was 1.79 µM; in the assay on HCC-2998 colon it was 1.85 µM; with SF-295 CNS it was 1.81 µM; with SK-MEL-2 melanoma it was 1.87 µM. Further, in the assay with EKVX NSCLC, the GI50 is 1.46 µM. The TGI in the assay with M14 melanoma came out at 3.78 µM; in the assay on NCI/ADR-RES ovarian, 3.27 µM; in the assay with TK-10 renal it was 3.38 µM; in the assay on HCC-2998 colon, 3.46 µM; with SF-295 CNS, 3.3 µM; with SK-MEL-2 melanoma, 3.64 µM. In the assay with EKVX NSCLC, this molecule displayed a TGI of 2.88 µM.

Consider `N#Cc1ncc(/N=C/c2ccc(N(CCCl)CCCl)cc2)s1`, for which the GI50 is 35.2 µM in the assay with M14 melanoma; 7.36 µM in the assay on NCI/ADR-RES ovarian; 23.2 µM with TK-10 renal; 15.6 µM in the assay with SF-268 CNS; 23.9 µM in the assay on HCC-2998 colon; 72.8 µM in the assay with HT29 colon. Further, the figures for the GI50 in the assay on SK-MEL-2 melanoma, in the assay with OVCAR-8 ovarian and in the assay on EKVX NSCLC were 69.9 µM, 7.58 µM and 42.2 µM, respectively. The TGI in the assay with M14 melanoma was over 100 µM; with NCI/ADR-RES ovarian it was over 100 µM; with TK-10 renal it was 97.4 µM; with SF-268 CNS, over 100 µM; with HCC-2998 colon it was over 100 µM; in the assay on HT29 colon, over 100 µM. Also, the TGI in the assay with SK-MEL-2 melanoma, in the assay with OVCAR-8 ovarian and in the assay on EKVX NSCLC was over 100 µM in each case.

Regarding `CSc1nnc(CCSc2ccnc3c(C(F)(F)F)cccc23)o1`, the GI50 is 72.2 µM with NCI/ADR-RES ovarian; 70.1 µM in the assay with TK-10 renal; 71.5 µM with SF-268 CNS; 64.8 µM with HCC-2998 colon; 59.8 µM in the assay with SF-295 CNS; over 100 µM with HT29 colon. The GI50 with SK-MEL-2 melanoma is over 100 µM; in the assay on OVCAR-8 ovarian it was over 100 µM; in the assay with EKVX NSCLC it was 9.21 µM. Further, the TGI in the assay with NCI/ADR-RES ovarian, with TK-10 renal, with SF-268 CNS, in the assay on HCC-2998 colon, with SF-295 CNS and in the assay with HT29 colon was over 100 µM each time. Moreover, the TGI in the assay with SK-MEL-2 melanoma, in the assay with OVCAR-8 ovarian and in the assay with EKVX NSCLC was over 100 µM each time.
